PMC7588194 (Virulence, 2020)

Test system: P. aeruginosa (ATCC 27853)
Assay: Radial diffusion assay
Assay type: cell-based
Details: for concentration achieving similar inhibition zones / enhancement of antimicrobial activity among derivatives D1-D7: Figure 6C
Description: To identify library fractions and purified peptides with antibacterial activity a radial diffusion assay was carried out. Bacteria were cultured in liquid THY broth (Todd-Hewitt Broth [Oxoid, CM0189B] supplemented with 0.5% yeast extract [BD, Miami, USA, 212,750]) at 37°C overnight in a 5% CO2 atmosphere, pelleted by centrifugation and washed in 10 mM sodium phosphate buffer. Following resuspension in 10 mM sodium phosphate buffer optical density was determined spectrophotometrically at 600 nm (OD600nm). Bacterial density was adjusted to seed 2 × 10^7 bacteria into a petri dish in 1% agarose dissolved in 10 mM sodium phosphate buffer. Plates were allowed to cool for 30 min at 4°C before several 2–3 mm holes were placed into the 1% agarose. Freeze-dried fractions of the BAL library pool were reconstituted in 200 µl of ddH2O with 10 µl being used for the initial screen. Alternatively, peptides adjusted to the desired concentration in 10 µl of ddH2O were filled into the agar-holes. Following incubation at 37°C in ambient air for 3 h plates were overlaid with 10 ml of a 1% agarose solution containing 3% tryptic soy broth (TSB) dissolved in 10 mM phosphate buffer. Inhibition zones in cm were determined following 16–18 h incubation time at 37°C in a 5% CO2 atmosphere.

Row | Sequence | times the amount needed compared to D7 at 25 µg/ml for similar inhibition zones | concentration achieving similar inhibition zones [µg/mL] | enhancement of antimicrobial activity among derivatives D1-D7
1 | RVNHVTLSQPKIVKW [B2M 101-115] | 2–4 | 50 to 100 | –
2 | GVNHVILSQIKIVKW [B2M D6] | – | – | most convincing enhancement of antimicrobial activity
3 | GVNHVKLSQIKIVKW [B2M D7] | – | 25 | most convincing enhancement of antimicrobial activity
